# Values of other authors as cited in US20220023237A1, “ADDITIVE AND/OR SYNERGISTIC COMBINATIONS OF METFORMIN WITH NUTRACEUTICALS FOR THE PREVENTION, INHIBITION AND TREATMENT OF SARS-COV-2 AND ASSOCIATED COVID-19” (priority 2020, published 2022).
# Read-outs that look alike come from different tables or passages of the source.
# Key:
# [1] = system: BALB/c mice with LPS-induced ARDS
# [2] = system: Nrf2 (+/+) primary peritoneal macrophages
# [3] = system: LPS-challenged macrophages; conditions: pre-incubated 6 h, 0 to 50 μM, then LPS 24 h
# [4] = system: lipopolysaccharide-activated macrophages; conditions: electrophoretic mobility shift assay
# [5] = system: rats subjected to myocardial ischemia and reperfusion; conditions: EGCG 10 mg/kg intravenously, then 10 mg/kg/h
# macrophage foam cells = conditions: pretreatment with EGCG
# C57BL6 mice = conditions: EGCG 10 mg/kg intraperitoneally, 72 h after CL2P
# [6] = system: mice with LPS-induced ARDS
# male Sprague-Dawley rats = conditions: EGCG 10 mg/kg intraperitoneally at 1 and 6 h after CL2P and every 12 h
# [7] = system: mice with experimental colitis
# [8] = system: lipopolysaccharide-induced inflammatory reactions
# [9] = system: mice challenged with endotoxin or live Escherichia coli; conditions: for concentration of IL-1α: controls 1187.0±278.64
compound,measurement,setting,value
"C[S+]([O-])CCCCN=C=S (stereo not shown) [sulforaphane, 1-isothiocyanato-4-(methylsulfinyl)-butane]",Nrf2/antioxidant response element (ARE) pathway,[1]; pre-treatment,activated
same,"PGE2 production, COX-2 and MMP-9 protein expression, iNOS activity",[1]; sulforaphane 50 mg/kg,significantly inhibited
same,"LDH activity, wet-to-dry ratio of the lungs, serum IL-6 and TNF-α, nuclear factor-κB protein expression","[1]; sulforaphane 50 mg/kg, LPS 5 mg/kg 3 days later",significantly decreased
same,HO-1 expression,[2]; LPS-stimulated Nrf2 (+/+) macrophages,significantly augmented
same,"LPS-stimulated mRNA expression, protein expression and production of TNF-alpha, IL-1beta, COX-2 and iNOS","[2]; pretreatment, Nrf2 (+/+) macrophages",potently inhibited
same,expression of NO and cytokines,[3],able to prevent
Epigallocatechin-3-gallate [EGCG],activation of nuclear factor-kappaB,[4],blocked
same,myocardial damage and myeloperoxidase activity,[5],reduced
same,plasma IL-6 and creatine phosphokinase levels,[5],decreased
same,TNF-α-induced downregulation of ABCA1 and decrease in cholesterol efflux to apoA1,macrophage foam cells,attenuated
same,survival,C57BL6 mice,significantly improved
same,expression of IκB-α,[6]; EGCG 10 mg/kg ip,increased
same,"expression of TLR-4, MyD88, TRIF and p-p65 in the lung tissue",[6]; EGCG 10 mg/kg ip,alleviated
same,"expression of TNF-α, IL-1β and IL-6 in the lung, serum and bronchoalveolar lavage fluid",[6]; EGCG 10 mg/kg ip,significantly decreased
same,expression of p65,[6]; EGCG 10 mg/kg ip,no influence
same,"LPS-induced ARDS (blood gases, histological lesions, wet-to-dry weight ratios, MPO activity)",[6]; EGCG 10 mg/kg ip 1 h before LPS 10 mg/kg ip,attenuated
same,lethal sepsis,mice; first dose given 24 hours after cecal ligation and puncture,rescued
same,lethal endotoxemia,mice; intraperitoneal administration,protected
same,hypotension,male Sprague-Dawley rats,significantly improved
same,disease activity index (DAI) and spleen index (SI),"[7]; 50 and 100 mg/kg/day, compared with the MD group",decreased
same,HIF-1α and STAT3 protein expression in the colon,"[7]; mouse, in vivo",decreasing
same,plasma levels of IL-10 and TGF-β1,"[7]; mouse, in vivo",increasing
same,release of IL-6 and IL-17,[7]; plasma,reduce
CC1=CC(=O)C(C(C)C)=CC1=O [thymoquinone],lipopolysaccharide-induced inflammatory reactions,[8],suppressed effectively
same,concentration of nitric oxide,[8]; marker of inflammation,reduced significantly
same,concentration of IL-1α,[9]; 0.75 mg/kg dose,310.8 ± 70.93 pg/mL
same,IL-10 levels,"[9]; 0.75 mg/kg, controls 5505.2 ±333.96",2885.0 ± 553.98 pg/mL
same,concentration of IL-1α,[9]; 1 mg/kg group,428.3 ± 71.32 pg/mL
same,levels of TNF-α and IL-2,[9]; P values=0.1817 and 0.0851,relatively lower levels
same,renal and hepatic biomarker profiles,[9]; septic mice,improved
same,reduction of mortality,"[9]; septic mice, thymoquinone intraperitoneal",80-90%
